From patent US4211866A, “Acyl derivatives of 2-[3-(2-chloroethyl)-3-nitrosoureido]-2-deoxy-D-glucopyranose” (Nippon Shinyaku Co., Ltd., priority 1977, dated 1980)

Assays:
[1] = system: mouse lymphatic leukemia P-388; experiment: Antileukemic activity against Leukemia P-388 in mice; assay type: in vivo, mouse (SLC-BDF1, male); details: intraperitoneal, every 24 hours, 9 doses; for Median survival time: control 10.2 days; for Increase of Life Span: vs control
Description: The antitumor activity and acute toxicity of the acyl derivatives of 2-[3-(2-chloroethyl)-3-nitrosoureido]-2-deoxy-D-glucopyranose according to this invention can be conveniently observed in recognized animal models. 1,000,000 cells of mouse lymphatic leukemia P-388 were intraperitoneally transplanted into each mouse (SLC-BDF1, male, 18 g.congruent.1 g, 5 weeks old). After 24 hours and thereafter at intervals of 24 hours, a predetermined amount of an acyl derivative of 2-[3-(2-chloroethyl)-3-nitro-soureido]-2-deoxy-D-glucopyramose was intraperitoneally administered for a total of 9 doses. The mice were reared under observation.

Acute toxicities in mice = assay type: in vivo; details: mice (male, ddy), intraperitoneal single dose, 7 days survival
From the text: Acute toxicities in mice (male, ddy).
*Intraperitoneal administration of a single dose, 7 days survival.

Compound | Median survival time ([1]; 0.125 mg/Kg/dose) | Increase of Life Span ([1]; 0.125 mg/Kg/dose) | Median survival time ([1]; 0.25 mg/Kg/dose) | Increase of Life Span ([1]; 0.25 mg/Kg/dose) | Median survival time ([1]; 0.5 mg/Kg/dose) | Increase of Life Span ([1]; 0.5 mg/Kg/dose) | Median survival time ([1]; 1.0 mg/Kg/dose) | Increase of Life Span ([1]; 1.0 mg/Kg/dose) | LD50 (Acute toxicities in mice) | LD50 at 168 h (Acute toxicities in mice; mouse, in vivo, ip)
2-[3-(2-chloroethyl)-3-nitrosoureido]-2-deoxy-D-glucopyranose monopalmitate | 14.8 days | 45.1% | 15.5 days | 52.0% | 16.3 days | 59.8% | 17.5 days | 71.6% | 162.5 mg/kg | 
O=NN(CCCl)C(=O)N[C@H]1C(O)O[C@H](CO)[C@@H](O)[C@@H]1O (stereo partly drawn) [Chlorozotocin, 2-[3-(2-Chloroethyl)-3-nitrosoureido]-2-deoxy-D-glucopyranose] | 12.3 days | 20.6% | 14.5 days | 42.2% | 16.3 days | 59.8% | 18.8 days | 84.3% |  | 45 to 47 mg/kg
2-[3-(2-chloroethyl)-3-nitrosoureido]-2-deoxy-D-glucopyranose dipalmitate | 16.5 days | 61.8% | 17.8 days | 74.5% | 19.3 days | 89.2% | 21.0 days | 105.9% | > 800 mg/kg | 
2-[3-(2-chloroethyl-3-nitrosoureidol]-2-deoxy-D-glucopyranose tripalmitate |  |  |  |  |  |  |  |  | > 800 mg/kg | 
